US7459458B2, “Polymorph of N-methyl-N-(3-{3-[2-thienylcarbonyl]-pyrazol-[1,5-α]-pyrimidin-7-yl}phenyl)acetamide and compositions and methods related thereto” (Neurocrine Biosciences, Inc., priority 2002, dated 2008)

Assay: Interconversion experiments (slurry) to evaluate thermodynamic stability of Compound 1 at room temperature
Format: physicochemical
Details: agitated 16 days
Experimental: Interconversion experiments were carried out to evaluate the thermodynamic stability of Compound 1 at room temperature. Three slurries were prepared by making saturated isopropanol solutions of Compound 1, filtering the solutions through 0.2 μm filters, and then adding an amount (in the form of crystals) of a polymorphic form of Compound 1. To the first slurry, equal amounts of both polymorph Form II and polymorph Form III (i.e., approximately 25 mg each) were added; to the second slurry, equal amounts of polymorph From I and polymorph Form III (i.e., approximately 25 mg each) were added; and to the third slurry, approximately 25 mg of polymorph Form III was added. The slurries were then agitated for 16 days. The resulting solids were collected by vacuum filtration, air-dried, and analyzed using XRPD.

CC(=O)N(C)c1cccc(-c2ccnc3c(C(=O)c4cccs4)cnn23)c1 [polymorph Form III, N-methyl-N-(3-{3-[2-thienylcarbonyl]-pyrazol-[1,5-α]-pyrimidin-7-yl}phenyl)acetamide]
solid form obtained from slurry (XRPD) (saturated isopropanol slurry seeded with approx. 25 mg polymorph Form III alone): exclusively polymorph Form III
solid form obtained from slurry (XRPD) (saturated isopropanol slurry seeded with equal amounts (approx. 25 mg each) of polymorph Form I and Form III): polymorph Form III as the predominant product, with only a minor amount of polymorph Form I
solid form obtained from slurry (XRPD) (saturated isopropanol slurry seeded with equal amounts (approx. 25 mg each) of polymorph Form II and Form III): exclusively polymorph Form III
